Data on 16 compounds can be found in ChEMBL document CHEMBL3085711, “Phosphorus-nitrogen compounds part 27. Syntheses, structural characterizations, antimicrobial and cytotoxic activities, and DNA interactions of new phosphazenes bearing secondary amino and pendant (4-fluorobenzyl)spiro groups” (2013).

The structures appear in SMILES notation. Converted amounts (≈) assume the structure as drawn. The source made the active and inactive calls. The calls are words filed in the database; no cut-off is given here.

Usually MIC stands for the lowest concentration found to suppress growth. The low end stands for a more susceptible organism, the high end for a less susceptible organism.

Assay [1] deals with Escherichia coli. The experiment in a line: Binding affinity to Escherichia coli pBR322 DNA assessed as DNA strand cleavage at 156 to 2500 uM after 24 hrs by agarose gel electrophoresis.
For assay [2], the system named is Escherichia coli. Kind of assay: Binding affinity to Escherichia coli pBR322 A/AGCTT DNA assessed as DNA strand cleavage at 625 to 2500 uM preincubated for 24 hrs prior to HindIII treatment measured after 1 hr by agarose gel electrophoresis.
Assay [3] deals with HeLa. The experiment in a line: Cytotoxicity against human HeLa cells assessed as decrease in cell viability at 5 to 50 ug/ml after 24 hrs by MTT assay relative to control. It is filed as functional. (Tetrazolium assays rely on reduction of a dye to a coloured formazan, in cell work by metabolically active cells.)
The subject of assay [4] is Candida albicans. The experiment in a line: Antifungal activity against Candida albicans ATCC 10231 at 0.25 mM after 72 hrs by disk diffusion method. It is filed as functional. Particulars: ATCC 10231, 72 h, read-out: DIZ.
Assay [5] deals with Candida tropicalis. Kind of assay: Antifungal activity against Candida tropicalis ATCC 13803. It is filed as functional.
In assay [6] the test system is Candida tropicalis. Kind of assay: Antifungal activity against Candida tropicalis ATCC 13803 at 0.25 mM after 72 hrs by disk diffusion method. The conditions noted are these: ATCC 13803, 72 h, read-out: DIZ. It counts as functional. For orientation: Agar diffusion results depend on both activity and mobility in agar.
Assay [7] concerns Candida albicans. The experiment in a line: Antifungal activity against Candida albicans ATCC 10231. It is filed as functional.
Assay [8] deals with Escherichia coli. Kind of assay: Binding affinity to Escherichia coli pBR322 G/GATCC DNA assessed as DNA strand cleavage at 625 to 2500 uM preincubated for 24 hrs prior to BamHI treatment measured after 1 hr by agarose gel electrophoresis.
Assay [9] deals with HeLa. The experiment in a line: Cytotoxicity against human HeLa cells assessed as decrease in cell viability at 10 to 50 ug/ml after 24 hrs by MTT assay relative to control. It counts as functional, cell-based.
Assay [10] relates to HeLa. The experiment in a line: Cytotoxicity against human HeLa cells assessed as decrease in cell viability after 24 hrs by MTT assay. It counts as functional, cell-based.
Assay [11] concerns Bacillus subtilis. The experiment in a line: Antibacterial activity against Bacillus subtilis at 10 ug after 24 hrs by disk diffusion method. It is filed as functional. Particulars: read-out: DIZ.
Assay [12] concerns Bacillus cereus. Kind of assay: Antibacterial activity against Bacillus cereus at 10 ug after 24 hrs by disk diffusion method. It counts as functional. Particulars: read-out: DIZ.
Assay [13] relates to Candida tropicalis. Kind of assay: Antifungal activity against Candida tropicalis ATCC 13803 at 50 ug after 72 hrs by disk diffusion method. It counts as functional. Particulars: ATCC 13803, 72 h, read-out: DIZ.
Assay [14] relates to Candida albicans. The experiment in a line: Antifungal activity against Candida albicans ATCC 10231 at 50 ug after 72 hrs by disk diffusion method. It counts as functional. Particulars: ATCC 10231, 72 h, read-out: DIZ.
In assay [15] the test system is Bacillus subtilis. The experiment in a line: Antibacterial activity against Bacillus subtilis at 30 ug after 24 hrs by disk diffusion method. It is filed as functional. The conditions noted are these: read-out: DIZ.
Assay [16] deals with Bacillus cereus. The experiment in a line: Antibacterial activity against Bacillus cereus at 30 ug after 24 hrs by disk diffusion method. It is filed as functional. Particulars: read-out: DIZ.
Assay [17] has as its system Bacillus subtilis. The experiment in a line: Antibacterial activity against Bacillus subtilis at 0.25 mM after 24 hrs by disk diffusion method. It counts as functional. Particulars: read-out: DIZ.
Assay [18] relates to Bacillus subtilis. Kind of assay: Antibacterial activity against Bacillus subtilis. It counts as functional.
Assay [19] deals with HeLa. The experiment in a line: Cytotoxicity against human HeLa cells assessed as decrease in cell viability at 5 ug/ml after 24 hrs by MTT assay relative to control. It counts as functional, cell-based.
Assay [20] relates to HeLa. The experiment in a line: Induction of apoptosis in human HeLa cells assessed as change in cellular morphology at 25 uM after 24 hrs by propidium iodide staining-based fluorescence microscopic analysis. It counts as functional, cell-based.
Assay [21] relates to HeLa. The experiment in a line: Induction of apoptosis in human HeLa cells assessed as loss of mitochondrial membrane potential at 25 uM after 24 hrs by DiOC6 staining-based fluorescence microscopic analysis. It counts as functional, cell-based.
Assay [22] has as its system Bacillus cereus. The experiment in a line: Antibacterial activity against Bacillus cereus at 0.25 mM after 24 hrs by disk diffusion method. It counts as functional. Particulars: read-out: DIZ.
Assay [23] deals with Bacillus cereus. The experiment in a line: Antibacterial activity against Bacillus cereus. It is filed as functional.
In assay [24] the test system is HeLa. The experiment in a line: Cytotoxicity against human HeLa cells assessed as decrease in cell survival at 10 ug/ml after 48 hrs by trypan blue exclusion assay. It is filed as functional, cell-based.
For assay [25], the system named is HeLa. Kind of assay: Induction of apoptosis in human HeLa cells at 25 uM after 48 to 72 hrs by DAPI staining-based fluorescence microscopic analysis. It is filed as functional, cell-based.

On to `CN1CCN(Cc2ccc(F)cc2)P12=NP(N1CCOCC1)(N1CCOCC1)=NP(N1CCOCC1)(N1CCOCC1)=N2` (centres undefined), for which the outcome in the assay with Escherichia coli [1] and in the assay with Escherichia coli [2] was Active. The outcome in the assay with HeLa [3] was inactive.

For the compound `CN1CCCN(Cc2ccc(F)cc2)P12=NP(N1CCCCC1)(N1CCCCC1)=NP(N1CCCCC1)(N1CCCCC1)=N2` (centres undefined), the zone of inhibition at 250 µM in the assay with Candida albicans [4] is 18.3 mm; in the assay with Candida tropicalis [6], 20 mm. Also, the minimum inhibitory concentration (MIC) against Candida tropicalis [5] was determined as 19.5 µM (≈ 13 µg/mL); against Candida albicans [7], 9.8 µM (≈ 6.52 µg/mL). For the same compound, the outcome in the assay with Escherichia coli [1], in the assay with Escherichia coli [8] and with HeLa [9] was Active. In addition, in the assay with HeLa [10], the Activity entry is “Dose-dependent effect”.

For `CC1(C)S[C@@H]2[C@H](NC(=O)[C@H](N)c3ccccc3)C(=O)N2[C@H]1C(=O)O` [AMPICILLIN], the zone of inhibition at 10 µg/disc worked out at 30.3 mm with Bacillus subtilis [11] and 26.3 mm with Bacillus cereus [12].

Turning to `CC(=O)N1CCN(c2ccc(OCC3COC(Cn4ccnc4)(c4ccc(Cl)cc4Cl)O3)cc2)CC1` (centres undefined) [KETOCONAZOLE], the zone of inhibition at 50 µg/disc in the assay on Candida tropicalis [13] and in the assay with Candida albicans [14] was 29 mm throughout.

Take `O=C(N[C@H](CO)[C@H](O)c1ccc([N+](=O)[O-])cc1)C(Cl)Cl` [CHLORAMPHENICOL]: the values for the zone of inhibition at 30 µg/disc in the assay on Bacillus subtilis [15] and in the assay on Bacillus cereus [16] were 31 mm and 26 mm, respectively.

With `CCN1CCN(Cc2ccc(F)cc2)P12=NP(N1CCCCC1)(N1CCCCC1)=NP(N1CCCCC1)(N1CCCCC1)=N2` (centres undefined), the zone of inhibition at 250 µM in the assay with Candida albicans [4] was found to be 12.3 mm; in the assay with Candida tropicalis [6], 17.3 mm; with Bacillus subtilis [17] it was 10.7 mm. Moreover, the results for the minimum inhibitory concentration (MIC) against Candida tropicalis [5], against Candida albicans [7] and against Bacillus subtilis [18] were 19.5 µM (≈ 13 µg/mL), 625 µM (≈ 416 µg/mL) and 156 µM (≈ 104 µg/mL), respectively. Moreover, the result with Escherichia coli [1] and with Escherichia coli [8] was Active. For the same compound, the Activity result in the assay with HeLa [10] is “Dose-dependent effect”.

In the case of `CCN1CCN(Cc2ccc(F)cc2)P12=NP(N1CCOCC1)(N1CCOCC1)=NP(N1CCOCC1)(N1CCOCC1)=N2` (centres undefined), the result in the assay with Escherichia coli [1] and with Escherichia coli [2] was Active. For the same compound, the result in the assay with HeLa [3] was inactive.

For the compound `CN1CCN(Cc2ccc(F)cc2)P12=NP(N1CCCCC1)(N1CCCCC1)=NP(N1CCCCC1)(N1CCCCC1)=N2` (centres undefined), the zone of inhibition at 250 µM in the assay with Candida albicans [4] came out at 13.6 mm; in the assay on Candida tropicalis [6], 17.3 mm. Moreover, the MIC with Candida tropicalis [5] and with Candida albicans [7] was 156 µM (≈ 102 µg/mL) in each case. Further, the result in the assay on Escherichia coli [1] and with Escherichia coli [8] was Active. The Activity entry in the assay with HeLa [10] is “Dose-dependent effect”.

With `CCN1CCN(Cc2ccc(F)cc2)P12=NP(N1CCC3(CC1)OCCO3)(N1CCC3(CC1)OCCO3)=NP(N1CCC3(CC1)OCCO3)(N1CCC3(CC1)OCCO3)=N2` (centres undefined), the result in the assay with Escherichia coli [1] and in the assay on Escherichia coli [8] was Active. Also, the outcome in the assay on HeLa [3] was inactive.

In the case of `CCN1CCN(Cc2ccc(F)cc2)P12=NP(N1CCCC1)(N1CCCC1)=NP(N1CCCC1)(N1CCCC1)=N2` (centres undefined), the result in the assay on Escherichia coli [1], in the assay on HeLa [19] and with Escherichia coli [8] was Active. The zone of inhibition at 250 µM in the assay with Bacillus subtilis [17] turned out to be 11.5 mm. The minimal inhibitory concentration (MIC) in the assay on Bacillus subtilis [18] stood at 9.8 µM (≈ 5.97 µg/mL). Further, in the assay on HeLa [10], the Activity entry was “Dose-dependent effect”.

With `CC(=O)O[C@H]1C(=O)[C@@]2(C)[C@H]([C@H](OC(=O)c3ccccc3)[C@]3(O)C[C@H](OC(=O)[C@H](O)[C@@H](NC(=O)c4ccccc4)c4ccccc4)C(C)=C1C3(C)C)[C@]1(OC(C)=O)CO[C@@H]1C[C@@H]2O`, the outcome with HeLa [3] was Active. Besides, the Activity entry with HeLa [10] was “Dose-dependent effect”.

`CN1CCN(Cc2ccc(F)cc2)P12=NP(N1CCCC1)(N1CCCC1)=NP(N1CCCC1)(N1CCCC1)=N2` (centres undefined): the result with Escherichia coli [1] and in the assay with Escherichia coli [8] was Active. Also, the zone of inhibition at 250 µM in the assay with Bacillus subtilis [17] came out at 12.3 mm. Also, it took 9.8 µM (≈ 5.84 µg/mL) to inhibit growth with Bacillus subtilis [18] (MIC). For the same compound, the Activity result with HeLa [10] was “Dose-dependent effect”.

As to `CN1CCCN(Cc2ccc(F)cc2)P12=NP(N1CCOCC1)(N1CCOCC1)=NP(N1CCOCC1)(N1CCOCC1)=N2` (centres undefined), the outcome with Escherichia coli [1], in the assay on Escherichia coli [2] and with HeLa [21] was Active. The result in the assay with HeLa [20] was inactive. Further, the Activity with HeLa [3] is given as 58%.

With `CN1CCCN(Cc2ccc(F)cc2)P12=NP(N1CCCC1)(N1CCCC1)=NP(N1CCCC1)(N1CCCC1)=N2` (centres undefined), the result with Escherichia coli [1] and with Escherichia coli [8] was Active. For the same compound, the zone of inhibition at 250 µM is 12.6 mm with Bacillus cereus [22] and 16.5 mm in the assay on Bacillus subtilis [17]. Further, the figures for the MIC against Bacillus cereus [23] and with Bacillus subtilis [18] were 156 µM (≈ 95.3 µg/mL) and 9.8 µM (≈ 5.97 µg/mL), respectively. Moreover, the Activity with HeLa [3] was 50%; in the assay with HeLa [10], “Dose-dependent effect”.

With `CN1CCN(Cc2ccc(F)cc2)P12=NP(N1CCC3(CC1)OCCO3)(N1CCC3(CC1)OCCO3)=NP(N1CCC3(CC1)OCCO3)(N1CCC3(CC1)OCCO3)=N2` (centres undefined), the outcome in the assay on Escherichia coli [1], in the assay on Escherichia coli [8], in the assay on HeLa [21], in the assay on HeLa [24] and in the assay on HeLa [25] was Active. The result with HeLa [20] and with HeLa [3] was inactive.

Regarding `CN1CCCN(Cc2ccc(F)cc2)P12=NP(N1CCC3(CC1)OCCO3)(N1CCC3(CC1)OCCO3)=NP(N1CCC3(CC1)OCCO3)(N1CCC3(CC1)OCCO3)=N2` (centres undefined), the result in the assay on Escherichia coli [1], in the assay with Escherichia coli [8], with HeLa [21], with HeLa [24] and in the assay with HeLa [25] was Active. For the same compound, in the assay on HeLa [20], the outcome was inactive. Also, in the assay on HeLa [3], the Activity amounted to 49%.
